Assay results from US9359451B2, “Methods and compositions for treating trauma-hemorrhage using estrogen and derivatives thereof” (THE UAB RESEARCH FOUNDATION, priority 2012, dated 2016).
“Also recorded” adds a separate entry of the source.

Assays:
spinal cord tissue = experiment: Spinal cord injury (clip compression): histology and Luxol fast blue; format: in vivo, mouse; conditions: 24 h after SCI; for histological alterations of the spinal cord tissue (H&E, histological score): 17β-estradiol 300 μg/kg sc 1 h before, 3 h and 6 h after SCI, ICI 182,780: 500 μg/kg sc 1 h before 17β-estradiol; for myelin structure (Luxol fast blue): ICI 182,780: co-administered with 17β-estradiol
Method: Mice were anaesthetized using chloral hydrate (400 mg/kg body weight) (Genovese 2006). A longitudinal incision was made on the midline of the back, exposing the paravertebral muscles. These muscles were dissected away exposing T5-T8 vertebrae. The spinal cord was exposed via a four-level T6-T7 laminectomy and SCI was produced by extradural compression using an aneurysm clip with a closing force of 24 g. Following surgery, 1 ml of saline was administered subcutaneously in order to replace the blood volume lost during surgery. During the surgery and recovery from anesthesia, the mice were placed on a warm heating pad and covered with a warm towel. […] Food and water were provided to the mice ad libitum. During this time period, the animals' bladders were manually voided twice a day until the mice were able to regain normal bladder function. In all injured groups, the spinal cord was compressed for 1 min. Sham-injured animals were only subjected to laminectomy. […] In the experiments regarding the motor score, the animals from all the experimental groups were observed and treated daily for 9 days after SCI. At different time points (see FIG. 30), the mice (n=10 from each group for each of the 3 time points) were sacrificed in order to evaluate the various parameters as described below. Spinal cord biopsies were taken at 24 hours following trauma. Tissue segments containing the lesion (1 cm on each side of the lesion) were paraffin embedded and cut into 5-μm-thick sections. Tissue sections were deparaffinized with xylene, stained with Haematoxylin/Eosin (H&E) and Luxol Fast Blue staining (used to assess demyelination) and studied using light microscopy (Dialux 22 Leitz). The segments of each spinal cord were evaluated by an experienced histopathologist (RO). Damaged neurons were counted and the histopathologic changes of the gray matter were scored on a 6-point […] 2000): 0, no lesion observed, 1, gray matter contained 1 to 5 eosinophilic neurons; 2, gray matter contained 5 to 10 eosinophilic neurons; 3, gray matter contained more than 10 eosinophilic neurons; 4, small infarction (less than one third of the gray matter area); 5, moderate infarction; (one third to one half of the gray matter area); 6, large infarction (more than half of the gray matter area). The scores from all the sections from each spinal cord were averaged to give a final score for an individual mice. All the histological studies were performed in a blinded fashion.

hind limb motor function = experiment: Spinal cord injury: grading of motor disturbance (modified BBB scale); format: in vivo, mouse; conditions: every day for 10 days after SCI; pre or post treatment with 17β-estradiol; ICI 182,780: co-administered with 17β-estradiol
Method: Mice were anaesthetized using chloral hydrate (400 mg/kg body weight) (Genovese 2006). A longitudinal incision was made on the midline of the back, exposing the paravertebral muscles. These muscles were dissected away exposing T5-T8 vertebrae. The spinal cord was exposed via a four-level T6-T7 laminectomy and SCI was produced by extradural compression using an aneurysm clip with a closing force of 24 g. Following surgery, 1 ml of saline was administered subcutaneously in order to replace the blood volume lost during surgery. During the surgery and recovery from anesthesia, the mice were placed on a warm heating pad and covered with a warm towel. […] Food and water were provided to the mice ad libitum. During this time period, the animals' bladders were manually voided twice a day until the mice were able to regain normal bladder function. In all injured groups, the spinal cord was compressed for 1 min. Sham-injured animals were only subjected to laminectomy. […] In the experiments regarding the motor score, the animals from all the experimental groups were observed and treated daily for 9 days after SCI. At different time points (see FIG. 30), the mice (n=10 from each group for each of the 3 time points) were sacrificed in order to evaluate the various parameters as described below. […] The motor function of mice subjected to compression trauma was assessed once a day for 10 days after injury. […]

C[C@]12CC[C@@H]3c4ccc(O)cc4CC[C@H]3[C@@H]1CC[C@@H]2O [17β-estradiol]
histological alterations of the spinal cord tissue (H&E, histological score) (spinal cord tissue): significant protection against the SCI-induced histological alteration; also recorded: significant protection from the SCI was observed
myelin structure (Luxol fast blue) (spinal cord tissue): myelin degradation was attenuated
hind limb motor disturbance (BBB score) (hind limb motor function): significant amelioration of hind limb motor disturbances; also recorded: reduces the motor disturbance after SCI

C[C@]12CC[C@@H]3c4ccc(O)cc4C[C@@H](CCCCCCCCC[S+]([O-])CCCC(F)(F)C(F)(F)F)[C@H]3[C@@H]1CC[C@@H]2O (stereo partly drawn) [ICI 182,780]
histological alterations of the spinal cord tissue (H&E, histological score) (spinal cord tissue): significantly blocked the effect of the 17β-estradiol
myelin structure (Luxol fast blue) (spinal cord tissue): significantly blocked the effect of the 17β-estradiol
hind limb motor disturbance (BBB score) (hind limb motor function): significantly blocked the effect of the 17β-estradiol
